Assay results: patent publication US11440899B2, “Pyrimidine TBK/IKKe inhibitor compounds and uses thereof” (Merck Patent GmbH, priority 2017, dated 2022)
Counter-ions that a name gives are not always drawn.

Tests used:
IKKe = IKKe (Homo sapiens (Human), UniProt Q14164); assay: IKKe Biochemical Assay
Protocol: IKKe Biochemical Assay Test compounds were transferred into Labcyte polypropylene 384 well plates ([…]-25) and diluted to 3 mM using DMSO. 3 mM test compounds were dispensed using Labcyte ECHO dose response module into Greiner 784075 plates (columns 3-12 and 13-22, 10 point 1:4) so that high concentration was 30 uM final. 100 uM of a reference compound (1 uM final high concentration). Backfilling was performed if necessary so that all wells contain 1% DMSO final: add 75 nl DMSO/well into columns 1, 2 and 24 using Labcyte Echo. add 75 nl 1.0 mM staurosporine/well into column 23 using Labcyte Echo (10 uM final) add 4.5 ul enzyme/well using multidrop dispenser add 3 ul substrate/well using multidrop dispenser incubate at 25° C. for 90 min. add 7.5 ul 2× stop buffer read on labchip ez reader II using IKKε. job Raw data files were opened in the Caliper LabChip Reviewer program (Version 3.0.265.0 SP2) and peak assignments were adjusted to reflect “substrate first” with the software's post-run analysis options. A spline-fit baseline was applied using the software's analysis algorithm.

TBK1 = TBK1 (Homo sapiens (Human), UniProt Q9UHD2); assay: TBK Biochemical Assay
Chain of TBK1 (Q9UHD2 whole entry, species assumed): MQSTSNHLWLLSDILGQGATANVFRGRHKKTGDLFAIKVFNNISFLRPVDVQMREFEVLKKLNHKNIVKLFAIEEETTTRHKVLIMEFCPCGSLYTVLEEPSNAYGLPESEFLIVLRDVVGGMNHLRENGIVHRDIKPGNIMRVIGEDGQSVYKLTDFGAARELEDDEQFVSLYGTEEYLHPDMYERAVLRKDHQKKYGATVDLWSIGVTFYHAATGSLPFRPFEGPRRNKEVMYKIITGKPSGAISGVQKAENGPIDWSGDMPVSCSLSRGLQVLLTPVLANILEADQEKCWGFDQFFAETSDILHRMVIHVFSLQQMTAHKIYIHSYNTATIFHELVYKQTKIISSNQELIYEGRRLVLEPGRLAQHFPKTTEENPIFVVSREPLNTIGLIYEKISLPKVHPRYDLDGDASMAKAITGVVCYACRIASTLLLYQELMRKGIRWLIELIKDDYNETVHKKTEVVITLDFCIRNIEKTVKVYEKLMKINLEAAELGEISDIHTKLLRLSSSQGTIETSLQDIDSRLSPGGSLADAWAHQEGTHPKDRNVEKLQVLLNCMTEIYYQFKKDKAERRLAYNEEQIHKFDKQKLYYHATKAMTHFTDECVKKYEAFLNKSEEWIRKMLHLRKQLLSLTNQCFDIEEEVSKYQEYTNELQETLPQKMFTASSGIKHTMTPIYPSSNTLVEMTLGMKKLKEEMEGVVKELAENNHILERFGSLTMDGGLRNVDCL
Protocol: Example 106: TBK Biochemical Assay Test compounds were transferred into Labcyte polypropylene 384 well plates ([…]-25) and diluted to 3 mM using DMSO. 3 mM test compounds were dispensed using Labcyte ECHO dose response module into Greiner 784075 plates (columns 3-12 and 13-22, 10 point 1:4) so that high concentration was 30 uM final. 100 uM of a reference compound (1 uM final high concentration). Backfilling was performed if necessary so that all wells contain 1% DMSO final: add 75 nl DMSO/well into columns 1, 2 and 24 using Labcyte Echo. add 75 nl 1.0 mM staurosporine/well into column 23 using Labcyte Echo (10 uM final) add 4.5 ul enzyme/well using multidrop dispenser add 3 ul substrate/well using multidrop dispenser incubate at 25° C. in Heidolph incubator for 90 min. add 7.5 ul 2× stop buffer using multidrop dispenser read on labchip ez reader II using TBK1.job Raw data files were opened in the Caliper LabChip Reviewer program (Version 3.0.265.0 SP2) and peak assignments were adjusted to reflect “substrate first” with the software's post-run analysis options. A spline-fit baseline was applied using the software's analysis algorithm.

Chain of IKKe (Q14164 whole entry, species assumed): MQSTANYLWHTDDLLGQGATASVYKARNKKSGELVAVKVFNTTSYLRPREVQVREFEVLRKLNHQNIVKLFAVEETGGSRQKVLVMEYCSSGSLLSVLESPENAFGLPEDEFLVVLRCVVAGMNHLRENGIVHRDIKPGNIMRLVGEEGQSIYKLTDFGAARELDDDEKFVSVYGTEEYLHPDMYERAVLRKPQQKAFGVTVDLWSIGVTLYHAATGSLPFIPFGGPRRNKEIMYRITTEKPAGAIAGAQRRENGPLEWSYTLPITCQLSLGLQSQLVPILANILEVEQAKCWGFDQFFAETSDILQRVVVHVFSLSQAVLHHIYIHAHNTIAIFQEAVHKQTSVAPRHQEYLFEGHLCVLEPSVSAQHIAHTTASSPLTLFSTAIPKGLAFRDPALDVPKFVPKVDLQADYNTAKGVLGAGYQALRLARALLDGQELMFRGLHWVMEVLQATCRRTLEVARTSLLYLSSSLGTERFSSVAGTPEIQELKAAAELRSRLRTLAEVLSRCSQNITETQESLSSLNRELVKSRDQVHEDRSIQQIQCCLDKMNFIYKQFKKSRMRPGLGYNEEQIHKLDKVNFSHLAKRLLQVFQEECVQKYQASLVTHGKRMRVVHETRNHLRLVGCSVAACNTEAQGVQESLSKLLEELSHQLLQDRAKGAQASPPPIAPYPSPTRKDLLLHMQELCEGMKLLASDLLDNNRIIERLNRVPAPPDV

Compound | IC50 (IKKe) | IC50 (TBK1)
COc1nc(Nc2cc(-c3ccc(OC4CCN(C(=O)c5n[nH]c(C)n5)CC4)c(C#N)c3)ncn2)ccc1C(=O)N(C)C [Example 45, 6-([6-[3-cyano-4-([1-[(5-methyl-1H-1,2,4-triazol-3-yl)carbonyl]piperidin-4-yl]oxy)phenyl]pyrimidin-4-yl]amino)-2-methoxy-N,N-dimethylpyridine-3-carboxamide] | < 100 nM | < 100 nM
COc1nc(Nc2cc(-c3ccc(O[C@H]4CCNC[C@H]4F)c(C#N)c3)ncn2)ccc1C(=O)N(C)C [Example 46, 6-[[6-(3-cyano-4-[[(3R,4S)-3-fluoropiperidin-4-yl]oxy]phenyl)pyrimidin-4-yl]amino]-2-methoxy-N,N-dimethylpyridine-3-carboxamide] | 100 to 1000 nM | 100 to 1000 nM
COc1nc(Nc2cc(-c3ccc(O[C@H]4CCN(C(=O)CO)C[C@H]4F)c(C#N)c3)ncn2)ccc1C(=O)N(C)C [Example 47, 6-[[6-(3-cyano-4-[[(3R,4S)-3-fluoro-1-(2-hydroxyacetyl)piperidin-4-yl]oxy]phenyl)pyrimidin-4-yl]amino]-2-methoxy-N,N-dimethylpyridine-3-carboxamide] | < 100 nM | < 100 nM
COc1nc(Nc2cc(-c3ccc(OC4CCN(C(=O)CO)CC4(F)F)c(C#N)c3)ncn2)ccc1C(=O)N(C)C (centres unmarked) [Example 49, 6-[[6-(3-cyano-4-[[3,3-difluoro-1-(2-hydroxyacetyl)piperidin-4-yl]oxy]phenyl)pyrimidin-4-yl]amino]-2-methoxy-N,N-dimethylpyridine-3-carboxamide] | < 100 nM | < 100 nM
COc1nc(Nc2cc(-c3ccc(OC4CCNCC4)c(C#N)c3)ncn2)ccc1N1CCN(C)CC1 [Example 50, 5-(6-[[6-methoxy-5-(4-methylpiperazin-1-yl)pyridin-2-yl]amino]pyrimidin-4-yl)-2-(piperidin-4-yloxy)benzonitrile] | < 100 nM | < 100 nM
COc1nc(Nc2cc(-c3ccc(OC4CCN(C(=O)c5cocn5)CC4)c(C#N)c3)ncn2)ccc1N1CCN(C)CC1 [Example 54, 5-(6-[[6-methoxy-5-(4-methylpiperazin-1-yl)pyridin-2-yl]amino]pyrimidin-4-yl)-2-([1-[(1,3-oxazol-4-yl)carbonyl]piperidin-4-yl]oxy)benzonitrile] | < 100 nM | < 100 nM
COc1nc(Nc2cc(-c3ccc(OC4CCN(C(=O)c5n[nH]c(C)n5)CC4)c(C#N)c3)ncn2)ccc1N1CCN(C)CC1 [Example 55, 5-(6-[[6-methoxy-5-(4-methylpiperazin-1-yl)pyridin-2-yl]amino]pyrimidin-4-yl)-2-([1-[(5-methyl-1H-1,2,4-triazol-3-yl)carbonyl]piperidin-4-yl]oxy)benzonitrile] | < 100 nM | < 100 nM
COc1nc(Nc2cc(-c3ccc(OC4CCN(C(=O)c5cnco5)CC4)c(C#N)c3)ncn2)ccc1N1CCN(C)CC1 [Example 56, 5-(6-[[6-methoxy-5-(4-methylpiperazin-1-yl)pyridin-2-yl]amino]pyrimidin-4-yl)-2-([1-[(1,3-oxazol-5-yl)carbonyl]piperidin-4-yl]oxy)benzonitrile] | < 100 nM | < 100 nM
COc1nc(Nc2cc(-c3ccc(O[C@H]4CCN(C(=O)c5cnn[nH]5)C[C@H]4F)c(C#N)c3)ncn2)ccc1N1CCN(C)CC1 [Example 57, 2-[[(3R,4S)-3-fluoro-1-[(1H-1,2,3-triazol-5-yl)carbonyl]piperidin-4-yl]oxy]-5-(6-[[6-methoxy-5-(4-methylpiperazin-1-yl)pyridin-2-yl]amino]pyrimidin-4-yl)benzonitrile] | < 100 nM | < 100 nM
COc1nc(Nc2cc(-c3ccc(OC4CCN(C)CC4(F)F)c(C#N)c3)ncn2)ccc1N1CCN(C)CC1 (centres unmarked) [Example 58, 2-[(3,3-difluoro-1-methylpiperidin-4-yl)oxy]-5-(6-[[6-methoxy-5-(4-methylpiperazin-1-yl)pyridin-2-yl]amino]pyrimidin-4-yl)benzonitrile] | < 100 nM | < 100 nM
COc1nc(Nc2cc(-c3ccc(OC4CCN(C(=O)CO)CC4(F)F)c(C#N)c3)ncn2)ccc1N1CCN(C)CC1 (centres unmarked) [Example 59, 2-[[3,3-difluoro-1-(2-hydroxyacetyl)piperidin-4-yl]oxy]-5-(6-[[6-methoxy-5-(4-methylpiperazin-1-yl)pyridin-2-yl]amino]pyrimidin-4-yl)benzonitrile] | < 100 nM | < 100 nM
COc1nc(Nc2cc(-c3ccc(OC4CCN(C(=O)[C@H](C)O)CC4(F)F)c(C#N)c3)ncn2)ccc1N1CCN(C)C[C@@H]1C (stereo partly drawn) [Example 62, 2-([3,3-difluoro-1-[(2S)-2-hydroxypropanoyl]piperidin-4-yl]oxy)-5-[6-([5-[(2S)-2,4-dimethylpiperazin-1-yl]-6-methoxypyridin-2-yl]amino)pyrimidin-4-yl]benzonitrile hydrochloride] | < 100 nM | < 100 nM
COc1nc(Nc2cc(-c3ccc(OC4CCN(C(=O)[C@H](C)O)CC4(F)F)c(C#N)c3)ncn2)ccc1N1CCN(C)C[C@H]1C (stereo partly drawn) [Example 65, 2-([3,3-difluoro-1-[(2S)-2-hydroxypropanoyl]piperidin-4-yl]oxy)-5-[6-([5-[(2R)-2,4-dimethylpiperazin-1-yl]-6-methoxypyridin-2-yl]amino)pyrimidin-4-yl]benzonitrile hydrochloride] | < 100 nM | < 100 nM

Next, values leading:

IC50 (IKKe) | IC50 (TBK1) | Compound
< 100 nM | < 100 nM | COc1nc(Nc2cc(-c3ccc(OC4CCN(C(=O)c5cnco5)CC4)c(C#N)c3)ncn2)ccc1C(=O)N(C)C [Example 43, 6-([6-[3-cyano-4-([1-[(1,3-oxazol-5-yl)carbonyl]piperidin-4-yl]oxy)phenyl]pyrimidin-4-yl]amino)-2-methoxy-N,N-dimethylpyridine-3-carboxamide]
< 100 nM | < 100 nM | COc1nc(Nc2cc(-c3ccc(OC4CCN(C(=O)c5cocn5)CC4)c(C#N)c3)ncn2)ccc1C(=O)N(C)C [Example 44, 6-([6-[3-cyano-4-([1-[(1,3-oxazol-4-yl)carbonyl]piperidin-4-yl]oxy)phenyl]pyrimidin-4-yl]amino)-2-methoxy-N,N-dimethylpyridine-3-carboxamide]
< 100 nM | < 100 nM | COc1nc(Nc2cc(-c3ccc(OC4CCN(C)CC4(F)F)c(C#N)c3)ncn2)ccc1C(=O)N(C)C (centres unmarked) [Example 48, 6-[(6-[3-cyano-4-[(3,3-difluoro-1-methylpiperidin-4-yl)oxy]phenyl]pyrimidin-4-yl)amino]-2-methoxy-N,N-dimethylpyridine-3-carboxamide]
100 to 1000 nM | 100 to 1000 nM | COc1nc(Nc2cc(-c3ccc(OC4CCN(C)CC4)c(C#N)c3)ncn2)ccc1N1CCN(C)CC1 [Example 51, 5-(6-[[6-methoxy-5-(4-methylpiperazin-1-yl)pyridin-2-yl]amino]pyrimidin-4-yl)-2-[(1-methylpiperidin-4-yl)oxy]benzonitrile]
< 100 nM | < 100 nM | COc1nc(Nc2cc(-c3ccc(OC4CCN(C(=O)CO)CC4)c(C#N)c3)ncn2)ccc1N1CCN(C)CC1 [Example 52, 2-[[1-(2-hydroxyacetyl)piperidin-4-yl]oxy]-5-(6-[[6-methoxy-5-(4-methylpiperazin-1-yl)pyridin-2-yl]amino]pyrimidin-4-yl)benzonitrile]
< 100 nM | < 100 nM | COc1nc(Nc2cc(-c3ccc(OC4CCN(C(=O)C(C)O)CC4)c(C#N)c3)ncn2)ccc1N1CCN(C)CC1 (centres unmarked) [Example 53, 2-[[1-(2-hydroxypropanoyl)piperidin-4-yl]oxy]-5-(6-[[6-methoxy-5-(4-methylpiperazin-1-yl)pyridin-2-yl]amino]pyrimidin-4-yl)benzonitrile]
< 100 nM | < 100 nM | COc1nc(Nc2cc(-c3ccc(O[C@H]4CCN(C(=O)CO)CC4(F)F)c(C#N)c3)ncn2)ccc1N1CCN(C)CC1 [Example 60, 2-[[(4S)-3,3-difluoro-1-(2-hydroxyacetyl)piperidin-4-yl]oxy]-5-(6-[[6-methoxy-5-(4-methylpiperazin-1-yl)pyridin-2-yl]amino]pyrimidin-4-yl)benzonitrile]
< 100 nM | < 100 nM | COc1nc(Nc2cc(-c3ccc(OC4CCN(C(=O)[C@@H](C)O)CC4(F)F)c(C#N)c3)ncn2)ccc1N1CCN(C)C[C@@H]1C (stereo partly drawn) [Example 63, 2-([3,3-difluoro-1-[(2R)-2-hydroxypropanoyl]piperidin-4-yl]oxy)-5-[6-([5-[(2S)-2,4-dimethylpiperazin-1-yl]-6-methoxypyridin-2-yl]amino)pyrimidin-4-yl]benzonitrile hydrochloride]
< 100 nM | < 100 nM | COc1nc(Nc2cc(-c3ccc(OC4CCNCC4(F)F)c(C#N)c3)ncn2)ccc1N1CCN(C)C[C@H]1C (stereo partly drawn) [Example 64, 2-[(3,3-difluoropiperidin-4-yl)oxy]-5-[6-({5-[(2R)-2,4-dimethylpiperazin-1-yl]-6-methoxypyridin-2-yl}amino)pyrimidin-4-yl]benzonitrile]
